Non-standard residues stand in square brackets, D forms with d. Residues, ends and D or L forms follow the SMILES beside them.
Assays:
[1] = tested on: PC-3 cells; experiment: Cell cycle analysis (PI, flow cytometry); assay type: cell-based, human; settings: PC-3, 10 μM
Procedure: PC-3 cells were grown in T-75 flask to 75% confluency and treated with either 10 μM [D-Trp]CJ-15,208 in 0.5% DMSO or 0.5% DMSO as a vehicle control for 24-48 h. After treatment, the cell media was collected, the cells were washed with ice cold PBS twice, and the washes collected with the media. The cells were then trypsinized and the combined cells and media centrifuged at 1200 rpm for 5 min. The cell pellet was resuspended in PBS, the cells counted using a hematocytometer, and 1 million cells resuspended in 300 μL PBS. The cells were fixed with 700 μL ice cold 100% ethanol overnight and then centrifuged at 1200 rpm. Following removal of the ethanol, the cells were resuspended in 500 μL PBS containing 100 μg/mL RNAse and incubated for 30 min at room temperature. Propidium iodide (PI) solution (Sigma, 100 μg/mL) was added, and the solution then incubated for 30 min at room temperature in the dark. Cell cycle analysis^38 was performed using a Beckman-Coulter MoFlo XDP flow cytometer, and the cell cycle phase distribution was analyzed using FlowJo v10.1.
(§1) Each experiment was performed in triplicate unless otherwise stated in the figure legend. GraphPad Prism 5 was used to determine IC50 values. Data represent the mean value+/−SEM. Compound vs. vehicle treated cells in the cell cycle phase and apoptosis experiments (FIGS. 5-8) were compared using the student's t-test, with a two-tailed, unpaired method, using the Prism software. The effects of compound vs. vehicle treatment on protein levels (FIG. 10) were evaluated by one-way ANOVA with Dunnett's test for multiple comparisons.

[2] = tested on: PC-3 cells; experiment: Annexin V-APC/PI apoptosis assay; assay type: cell-based, human; settings: PC-3, 10 μM
Procedure: (§2) The extent of apoptosis was analyzed by detecting surface expression of phosphatidylserine on apoptotic cells using an Annexin V-APC/PI dual staining apoptosis detection kit I (BD Biosciences) according to the manufacturer's protocol. Following treatment of PC-3 cells with 10 μM [D-Trp]CJ-15,208 or vehicle for 24 h or 48 h, the cells were collected, washed twice with cold PBS, and resuspended in 1× binding buffer at a concentration of 1×10^6 cells/mL. Cell suspension (100 μL) was transferred to a 5 ml culture tube, and 5 μL of Annexin V-APC and 25 μL of PI (50 μg/mL) were added. The cells were incubated for 15 min at room temperature in the dark with gentle vortexing, 400 μL of 1× binding buffer was then added to each sample, and the samples were analyzed using a Beckman-Coulter MoFlo XDP flow cytometer within one hour. The number of viable, apoptotic and necrotic cells were quantified using FlowJo v10.0.7. The apoptosis fraction (%) was calculated as (number of apoptotic cells/the number of total cells observed)×100%.^38
as §1

[3] = tested on: siRNA-transfected PC-3 cells; experiment: c-Myc knockdown, Annexin V-APC/PI apoptosis assay; assay type: cell-based, human; settings: 10 μM, 48 h
Procedure: as §2
PC-3 cells were seeded at a density of 2×10^6 cells in 10 cm plates and grown to 75-85% confluence in EMEM supplemented with 10% FBS and penicillin/streptomycin. […] Samples were analyzed using a BD FACSCanto-II cell analyzer and quantified in FlowJo v10.2. […]

[4] = tested on: Erk in PC-3 cells; experiment: Western blot of p-Erk/total Erk protein levels; assay type: cell-based, human
Procedure: (§3) Cells were seeded in 6 well plates at a density of 1×10^5 cells/well and grown to 75% confluence. Cells were treated with [D-Trp]CJ-15,208 at the indicated concentrations. Cells were then harvested as described above, and the cell pellets lysed in RIPA buffer consisting of 10 mM Tris HCl, pH 8.0, 150 mM NaCl, 1 mM EDTA, 1% Triton-X-100, 0.1% SDS, 1% sodium deoxycholate, and a protease inhibitor cocktail #P8340 (Sigma). Cell lysates were centrifuged at 13×1000 rpm for 15 min and the supernatants collected. The total protein concentration was measured in cell lysates using the standard Bradford assay. SDS gel electrophoresis was performed using 4-20% polyacrylamide gel (BioRad). […] Signal densities of the protein bands were determined using ImageJ software (NIH) and normalized to the internal loading control (actin).
(§4) Each experiment was performed in triplicate unless otherwise stated in the figure legend. […] The effects of compound vs. vehicle treatment on protein levels (FIG. 10) were evaluated by one-way ANOVA with Dunnett's test for multiple comparisons.

[5] = tested on: PP2A in PC-3 cells; experiment: Western blot of p-PP2A/total PP2A protein levels; assay type: cell-based, human
Procedure: as §3, §4

[6] = cited from earlier work
[7] = mice, dose of 60 mg/kg; cited from earlier work

**Q.** What does the source list for O=C1N[C@H](Cc2c[nH]c3ccccc23)C(=O)N[C@@H](Cc2ccccc2)C(=O)N2CCC[C@@H]2C(=O)N[C@H]1Cc1ccccc1 [[D-Trp]CJ-15,208, cyclo[Phe-D-Pro-Phe-D-Trp]] (cyclo(F[dP]F[dW]))?
**A.** cell population in G2 phase ([1]; 24 h): 42±4%; mean cell distribution in S phase ([1]; 24 h): 26±4%; mean cell population in G1 phase ([1]; 24 h): 32±1%; cells accumulated in G2 phase compared to vehicle treated control cells ([1]; 24 h or 48 h): at least 8 fold; cell population in G2 phase ([1]; 48 h): 58±4%; mean cell distribution in S phase ([1]; 48 h): 12±0.6%; mean cell population in G1 phase ([1]; 48 h): 31±6%; number of cells in early or late apoptosis ([2]; 24 h): No significant change; increase of number of cells in early apoptosis vs. vehicle ([2]; 48 h): 10 fold; increase of number of cells in late apoptosis vs. vehicle ([2]; 48 h): 3 fold; early apoptosis ([3]; PC-3 transfected with nontargeting siRNA): significantly increased early apoptosis; early apoptosis ([3]; PC-3 transfected with siRNA against c-Myc): did not significantly affect; total Erk protein levels ([4]; PC-3, 48 h): did not decrease significantly; cellular levels of p-Erk ([4]; PC-3, increasing concentrations, 48 h): did not change significantly; total PP2A protein levels ([5]; PC-3, 48 h, vs. vehicle treated cells): not significantly different; p-PP2A levels ([5]; PC-3, concentrations ≥10 μM, 48 h): significantly reduced; activity after oral administration [6]: active after oral administration; toxicity [7]: no evidence of toxicity

— patent US11510964B2, “Macrocyclic peptides to decrease c-Myc protein levels and reduce cancer cell growth” (University of Kansas, priority 2017, dated 2022)
